Results taken from patent US20110166206A1, “UBIQUILIN REGULATION OF PRESENILIN ENDOPROTEOLYSIS, AND SUPPRESSION OF POLYGLUTAMINE-INDUCED TOXICITY IN CELLS” (UNIVERSITY OF MARYLAND BIOTECHNOLOGY INSTITUTE, priority 2005, published 2011).

How the values were obtained:
PS1 and PS2 NTF and CTF = assay: MG132 treatment of UBQLN-transfected PS1 and PS2 stable cell lines, fragment immunoblot; assay type: cell-based; conditions: UBQLN1 transfected vs untransfected, MG132
Method: FIG. 3. […] (A) PS1 cells lines that were either not induced (lanes 1 and 3) or induced with PonA (lanes 2 and 4) and either left untransfected (lanes 1 and 2) or transfected with UBQLN1 expression plasmids (lanes 3 and 4) were treated for 7 h with MG132 after which protein lysates were collected and analyzed by immunoblotting. […] For clarification, if UBQLN did increase the turnover rate then by blocking degradation, turnover would be stopped and PS fragment levels would be similar, or increase, relative to that of untransfected cells. […] Densitometric analysis was used to quantify the extent of reduction. Each experiment was repeated more than three times and similar trends were observed.
(B) Same experiment and results as described in (A) except that PS2 inducible cell lines were used to examine PS2 NTF and CTF levels. […] UBQLN exerts greater effects on PS2 probably because it interacts more strongly with PS2, see [43].
HeLa and HEK293 cells were grown in DMEM supplemented with 10% FBS. PS1 and S2 inducible cell lines were generated by transfection of the pERV-expressing HEK293 cell line (Stratgene, IaIolla, Calif.) with FL human PS2 cDNA under the control of ponasteroneA (PonA)-inducible cassette in plasmid pEGSH (Stratagene). Stable integration of the pEGSH plasmid was achieved by selection for hygromycin resistance. […]

[1] = tested on: GFP-HttQ74-3 and GFP-HttQ28-2 HeLa cell lines; assay: Ubiquilin-1 transfection of stable GFP-HttPolyQ HeLa cell lines, serum withdrawal-induced cell death and aggregates; assay type: cell-based
Text: FIG. 11. […] The 28Q-2 and 74Q-3 were used in most of our studies. The asterisk corresponds to a non-specific band that is detected by the GFP antibody. • B. Representative fluorescent images of GFP-HttPolyQ(28)-2 and GFP-HttPolyQ(74)-3 stable cell lines. Note that GFP fluorescence is located in both the cytoplasm and the nucleus, but that compact foci are only seen in the GFP-HttPolyQ(74)-3 cells. • C. Cells expressing expanded polyglutamine proteins are more sensitive to H2O2. The GFP-HftPolyQ(28)-2 and GFP-HttPolyQ(74)-3 stable cell lines were exposed to 200 μM concentration of H2O2 and after 5 hr, the cells were stained with both Hoechest 33342 and PI. The cells stained by PI represent the dead cells whereas all the nuclei are identified by Hoechst 33342 staining. • D. Graph showing percentage of cell death after the cells were exposed to different concentrations of H2O2 for 5 hr. Percentages of cell death calculated by determining the ratio of PI-positively stained cells to that of Hoechst-stained cells. There was a significant difference in cell death upon exposure of GFP-HttPolyQ(28)-2 and GFP-HttPolyQ(74)-3 to 100 μM, 150 μM, or 200 μM of H2O2 (p<0.001). • E. Representative images showing that overexpression of ubiquilin-1 protects GFP-HttPolyQ(74)-3 expressing cells against serum withdrawal-induced cell death. Cells stably expressing GFP-HttPolyQ(28) or GFP-HttPolyQ(74) were transiently transfected with or without (mock transfection) plasmids encoding ubiquilin-1 by the calcium phosphate coprecipitation method. […] Cell death was quantified as described in D above. • H. Representative images showing that ubiquilin-1 overexpression protects GFP-HttPolyQ(74)-3 expressing cells against serum withdrawal-induced cell death, in a dose-dependent manner. […] After 5 hours of serum withdrawal and 30 hours following the transfection, the amount of cell death was analyzed by staining cells with both PI and Hoechst 33342. • I. Graph showing quantification of cell death in the experiments described in H. • J. Immunoblot showing overexpression of increasing amounts of ubiquilin-1 cDNA in the GFP-HttPolyQ(74)-3 cell line reduces GFP-aggregates trapped in the stacking gel after SDS-PAGE. […] Bottom panel: Quantification of the spot intensity determined in three independent experiments.
HeLa cells were grown in DME supplemented with 10% FBS. […] Stable cell lines were identified by GFP-fluorescence.
Cell death was monitored either through examination of the nuclear morphology observed after Hoechst 33342 (1 μg/ml) staining, or through detecting the membrane selective permeability following 3 μM of propidium iodide (PI) staining. […]

UBQLN1: PS-interacting protein ubiquilin-1, overexpressed in cells from a cDNA expression plasmid
PS1 and PS2 NTF and CTF levels after MG132 treatment (PS1 and PS2 NTF and CTF): remained reduced
spot intensity of GFP-aggregates, filter retardation assay ([1]; GFP-HttPolyQ(74)-3 cells, 2, 3 and 6 μg vs mock or 1 μg): significantly lower
cell death, ubiquilin-1-transfected vs mock-transfected ([1]; GFP-HttQ28-2 cell line): no significant difference in cell death
protection against cell death with increasing amounts of plasmid ([1]; GFP-HttQ74-3 cell line): dose-dependent protection against cell death
reduction in cell death ([1]; GFP-HttQ74-3 cell line, 24 hours after transfection and serum deprivation, vs untransfected): approximately 50%
